Data: ChEMBL document CHEMBL5375962 (J Med Chem, 2023)
pIC50: −log10 of the molar value. In brackets after ≈: the same amount, converted by molar mass.

Columns and labels:
[1] = AUC in dog at 1 mg/kg, iv; assay type: ADME, organism-based, Canis lupus familiaris; parameters: dose 1 mg/kg, route iv; details: in vivo
[2] = tested on: Hepatocyte; experiment: Cytotoxicity against rat Primary hepatocyte; assay type: toxicity, cell-based; details: hepatocytes
[3] = Clearance in rat at 1 mg/kg, iv measured after 12 hrs; assay type: ADME, organism-based; details: in vivo
[4] = Metabolic stability in rat liver microsomes assessed as compound degradation measured after 30 mins; assay type: ADME, Microsome; details: read-out: Drug degradation
[5] = Permeability in MDCK cells assessed as drug transport measured over 1 hr in presence of P-gp; assay type: ADME, cell-based, Canis lupus familiaris; details: dog
[6] = target: T1, Ketohexokinase (Homo sapiens, UniProt P50053); experiment: Inhibition of human KHK-A preincubated for 15 mins followed by substrate addition and measured after 20 mins in presence of ATP by Rapidfire MS analysis
T1 sequence (P50053 whole entry): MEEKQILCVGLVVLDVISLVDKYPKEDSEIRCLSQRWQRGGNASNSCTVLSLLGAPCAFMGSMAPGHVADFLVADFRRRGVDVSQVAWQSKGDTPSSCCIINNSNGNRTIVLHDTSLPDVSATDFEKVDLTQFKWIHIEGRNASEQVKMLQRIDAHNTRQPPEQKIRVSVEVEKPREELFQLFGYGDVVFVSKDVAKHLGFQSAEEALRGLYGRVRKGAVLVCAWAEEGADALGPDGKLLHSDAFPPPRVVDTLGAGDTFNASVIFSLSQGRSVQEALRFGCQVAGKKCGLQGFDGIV

[7] = Thermodynamic solubility of the compound […] at pH 7.4; assay type: physicochemical; details: read-out: Therm_solubility
[8] = target: T1, Ketohexokinase; experiment: Inhibition of KHK in human HepG2 cells incubated for 3 hrs by Rapidfire MS analysis; assay type: cell-based
[9] = Metabolic stability in dog liver microsomes assessed as compound degradation measured after 30 mins; assay type: ADME, Canis lupus familiaris, Microsome; details: read-out: Drug degradation
[10] = AUC in rat at 1 mg/kg, iv measured after 12 hrs; assay type: ADME, organism-based; parameters: time 12 hrs, dose 1 mg/kg, route iv; details: in vivo
[11] = Inhibition of mouse KHK-C
[12] = Metabolic stability in human liver microsomes assessed as compound degradation measured after 30 mins; assay type: ADME, Microsome; details: read-out: Drug degradation
[13] = Cmax in dog at 1 mg/kg, iv; assay type: ADME, organism-based, Canis lupus familiaris; parameters: dose 1 mg/kg, route iv; details: in vivo
[14] = Clearance in rat hepatocytes measured per 10^6 cells; assay type: ADME, cell-based, Hepatocyte; details: read-out: CLH
[15] = Volume of distribution in dog at 1 mg/kg, iv; assay type: ADME, organism-based, Canis lupus familiaris; details: in vivo
[16] = Metabolic stability in mouse liver microsomes assessed as compound degradation measured after 30 mins; assay type: ADME, Microsome; details: read-out: Drug degradation
[17] = Half life in dog at 1 mg/kg, iv; assay type: ADME, organism-based, Canis lupus familiaris; details: in vivo
[18] = Cmax in rat at 1 mg/kg, iv measured after 12 hrs; assay type: ADME, organism-based; parameters: dose 1 mg/kg, time 12 hrs, route iv; details: in vivo
[19] = Clearance in dog hepatocytes measured per 10^6 cells; assay type: ADME, cell-based, Canis lupus familiaris, Hepatocyte; details: read-out: CLH
[20] = Clearance in human hepatocytes measured per 10^6 cells; assay type: ADME, cell-based, Hepatocyte; details: read-out: CLH
[21] = Inhibition of mouse KHK-A
[22] = Volume of distribution in rat at 1 mg/kg, iv measured after 12 hrs; assay type: ADME, organism-based; details: in vivo
[23] = Clearance in dog at 1 mg/kg, iv; assay type: ADME, organism-based, Canis lupus familiaris; details: in vivo
[24] = Half life in rat at 1 mg/kg, iv measured after 12 hrs; assay type: ADME, organism-based; details: in vivo
[25] = AUC in dog at 3 mg/kg, po; assay type: ADME, organism-based, Canis lupus familiaris; parameters: dose 3 mg/kg, route po; details: in vivo
[26] = Oral bioavailability in dog at 3 mg/kg; assay type: ADME, organism-based, Canis lupus familiaris; details: in vivo
[27] = Cmax in dog at 3 mg/kg, po; assay type: ADME, organism-based, Canis lupus familiaris; parameters: dose 3 mg/kg, route po; details: in vivo
[28] = Tmax in dog at 3 mg/kg, po; assay type: ADME, organism-based, Canis lupus familiaris; details: in vivo
[29] = Half life in rat at 3 mg/kg, po measured after 12 hrs; assay type: ADME, organism-based; details: in vivo
[30] = Tmax in rat at 3 mg/kg, po measured after 12 hrs; assay type: ADME, organism-based; details: in vivo
[31] = Cmax in rat at 3 mg/kg, po measured after 12 hrs; assay type: ADME, organism-based; parameters: dose 3 mg/kg, time 12 hrs, route po; details: in vivo
[32] = Oral bioavailability in rat at 3 mg/kg measured after 12 hrs; assay type: ADME, organism-based; details: in vivo
[33] = Half life in dog at 3 mg/kg, po; assay type: ADME, organism-based, Canis lupus familiaris; details: in vivo
[34] = AUC in rat at 3 mg/kg, po measured after 12 hrs; assay type: ADME, organism-based; parameters: dose 3 mg/kg, time 12 hrs, route po; details: in vivo

| SMILES | AUC [1] [µM·h] | LC20 [2] [nM] | clearance [3] [mL/min/kg] | metabolised at 0.5 h [4] [%] | Drug transport [5] [%] | solubility thermodynamic [7] [µg/mL] | metabolised at 0.5 h [9] [%] | AUC at 12 h [10] [µM·h] | pIC50 [11] | metabolised at 0.5 h [12] [%] | Cmax [13] [nM] | hepatocyte CLint [14] [µL/min/1e6 cells] | Vd [15] [L/kg] | metabolised at 0.5 h [16] [%] | half-life [17] [h] | Cmax [18] [nM] | hepatocyte CLint [19] [µL/min/1e6 cells] | hepatocyte CLint [20] [µL/min/1e6 cells] | pIC50 [21] | Vd [22] [L/kg] | further results |
| --- | --- | --- | --- | --- | --- | --- | --- | --- | --- | --- | --- | --- | --- | --- | --- | --- | --- | --- | --- | --- | --- |
| C[C@H]1CCN1c1nc(-c2cnn(CC(=O)N3C[C@H](O)[C@@H](O)C3)c2)cc(C(F)(F)F)c1C#N | 2.5 | > 50000 | 101 | 1 | 0.5 | 21 (≈ 46.6 µM) | 9 | 0.381 | 7.92 | 24 | 2650 | 2.3 | 2.7 | 20 | 2.1 | 1280 | < 1.8 | 3.6 | 8.30 | 4.6 | pIC50 [6]: 8.15; pIC50 [8]: 7.12; clearance [23]: 16 mL/min/kg; half-life [24]: 0.5 h |
| OC[C@H]1CCN1c1nc(-c2cnn(C3CCNCC3)c2)cc(C(F)(F)F)n1 | 1.97 | > 50000 | 56 | 0 | 3.2 | 750 (≈ 1960 µM) | 7 | 0.69 | 6.75 | 3 | 2940 | < 1.8 | 8.4 | 13 | 5 | 310 | 3.4 | 1.8 | 7.25 | 17 | AUC [25]: 10.3 µM·h; bioavailability [26]: 100%; Cmax [27]: 609 nM; Tmax [28]: 2.3 h; half-life [29]: 5 h; Tmax [30]: 1.7 h; Cmax [31]: 424 nM; bioavailability [32]: 95%; half-life [33]: 10 h; clearance [23]: 23 mL/min/kg; half-life [24]: 4.3 h; AUC at 12 h [34]: 1.95 µM·h |
| C[C@H]1CCN1c1nc(-c2cnn(CC(=O)NCCO)c2)cc(C(F)(F)F)c1C#N | 9.04 | > 50000 | 16 | 21 | 15 | 39 (≈ 95.5 µM) | 7 | 2.62 | 7.55 | 4 | 2340 | 12 | 1.4 | 19 | 5.2 | 1910 | 3.2 | 2.8 | 7.92 | 2.9 | pIC50 [8]: 7.08; half-life [29]: 3 h; Tmax [30]: 1.2 h; Cmax [31]: 827 nM; bioavailability [32]: 62%; clearance [23]: 5 mL/min/kg; half-life [24]: 2.2 h; AUC at 12 h [34]: 5.09 µM·h |
